# Reference: US20110021507A1, “INHIBITING ANTIPSYCHOTIC-INDUCED WEIGHT GAIN” (Theracos, Inc., priority 2009, published 2011)
# Columns and labels:
# [1] = Olanzapine-induced weight gain in a rat model (Alzet minipumps); type: in vivo, Wistar-Han female rats; conditions: OLZ 10 mg/kg/day; for effect on weight gain (main effect of Treatment, 2-way repeated measures ANOVA): OLZ vs VEH p=0.042, OLZ vs OLZ+TZP p=0.01, TZP 5 mg/kg/day
# Description: Arrow indicates pump implantation and solid bar over the x-axis indicates the drug treatment interval. Telenzepine was administered at a dose of 5 mg/kg/day. […] The solid line indicates the effect of OLZ administered alone (OLZ-Induced weight gain), while dashed lines indicate groups receiving TZP, either alone (dashed line) or co-administered with the 10.0 mg/kg OLZ dose (dot-dash-dot line). The dotted line indicates the weight gain in animals receiving only Vehicle treatments. […] The rats were divided into the following four groups: Group 1—Control: Vehicle (NMP:DMSO:PEG) alone Group 2—OLZ (10 mg/kg/day) alone Group 3—TZP (5 mg/kg/day) alone Group 4—OLZ (10 mg/kg/day)+TZP (5 mg/kg/day) […] Two 2-way repeated measures ANOVAs were run: 1) Comparing No Treatment (VEH) to OLZ alone (addressing the question of whether or not OLZ induced weight gain), 2) Comparing OLZ alone to OLZ+TZP (addressing the question of whether or not TZP co-administration prevented OLZ-Induced weight gain).
# [2] = patients being administered olanzapine; cited from earlier work
# cortical receptors = conditions: cited from earlier work
# cardiac receptors = conditions: cited from earlier work
# muscarinic receptor = conditions: cited from earlier work
# [3] = at 90 degrees; cited from earlier work
smiles,measurement,setting,value
"Cc1cc2c(s1)Nc1ccccc1N=C2N1CCN(C)CC1 [Olanzapine, 2-methyl-4-(4-methyl-1-piperazinyl)-10H-thieno[2,3-b][1,5]benzodiazepine]","effect on weight gain (main effect of Treatment, 2-way repeated measures ANOVA)",[1],induced a significant amount of weight gain over No Treatment controls
same,difference in weight gain versus Vehicle treated rats,"[1]; Treatment Day 12 (peak OLZ-induced gain), TZP 5 mg/kg/day by minipump",6.2%
same,patients experiencing bodyweight gain of greater than 7%,[2],≤ 30%
Cc1scc2c1N(C(=O)CN1CCN(C)CC1)c1ccccc1NC2=O [(+) form of telenzepine],factor by which the (+) form is more effective than the (−) isomer,cortical receptors,400
same,factor by which the (+) form is more potent than the (−) form,cardiac receptors,50
same,antimuscarinic activity,muscarinic receptor,potent antimuscarinic activity
"Cc1scc2c1N(C(=O)CN1CCN(C)CC1)c1ccccc1NC2=O [Telenzepine, 4,9-Dihydro-3-methyl-4-[(4-methyl-1-piperazinyl)acetyl]-10H-thieno[3,4-b][1,5]benzodiazepin-10-one]","effect on weight gain (main effect of Treatment, 2-way repeated measures ANOVA)",[1],significant reduction in OLZ-induced weight gain
same,half time of interconversion of the two forms,[3],approximately 200 hours
Cc1scc2c1N(C(=O)CN1CCN(C)CC1)c1ccccc1NC2=O [(−) form],antimuscarinic activity,muscarinic receptor,considerably less active
